Data as given in PMC11902257, “Antiprotozoal Aminosteroids from Pachysandra terminalis” (Molecules, 2025).
Where “and” joins values, the source holds several entries; their conditions need not be identical. Equal values may be shown once. Read-outs that look alike come from different tables or passages of the source.

Legend:
Type in all cases: cell-based
[1] = tested on: Trypanosoma brucei rhodesiense (Tbr) STIB900 strain; experiment: in vitro antitrypanosomal assay, bloodstream forms, resazurin; conditions: for SI(Tbr): Selectivity index IC50(Cytotox)/IC50(Tbr)
Procedure: Trypanosoma brucei rhodesiense (Tbr): The STIB900 strain is a derivative of the STIB704 strain isolated from a patient in Ifakara, Tanzania, in 1982 [43]. The bloodstream forms were cultivated as axenic culture in HMI-9 medium, supplemented with 15% heat-inactivated horse serum. Cultures were maintained at 37 °C in an atmosphere of 5% CO2. Test compounds were dissolved in DMSO (10 mg/mL), and serial drug dilutions of eleven 3-fold dilution steps covering a range from 100 to 0.002 μg/mL were prepared in a 96-well plate. Bloodstream-form of T. b rhodesiense strain STIB900 (2 × 10^3/well) was added into the wells. After 68 h incubation, 10 μL of resazurin solution (12.5 mg resazurin in 100 mL 1xPBS) was added per well, and plates were incubated for an additional 4 h. Subsequently, the plates were read with a Spectramax Gemini EM microplate fluorometer (Molecular Devices, San Jose, CA, USA) using an excitation wavelength of 536 nm and an emission wavelength of 588 nm. Data were treated according to [44] (see below). Melarsoprol was used as a positive control.
(§1) Bioassay data and statistical methods: In all cases, the readout data were plotted in Microsoft Excel. Half-maximal inhibitory concentrations (IC50 values) were calculated from the sigmoidal dose-response curves by linear regression. Two independent replicates of the assay were performed in all cases, and the results were expressed as arithmetic mean ± deviation from the mean.

[2] = tested on: Plasmodium falciparum (Pf) NF54 strain; experiment: in vitro antiplasmodial assay, 3H-hypoxanthine incorporation, erythrocytic stages; conditions: for SI (Pf): Selectivity index IC50(Cytotox)/IC50(Pf)
Procedure: Plasmodium falciparum (Pf): Tests were performed against erythrocytic stages of the drug-sensitive NF54 strain. The NF54 strain was obtained from F. Hoffmann-La Roche Limited (Basel, Switzerland). The strain NF54 was originally derived from a patient living near Schiphol Airport, Amsterdam, who had never left the Netherlands. The assay was performed using a 3H-hypoxanthine incorporation assay. Serial compound dilutions were prepared with the medium as indicated above and then added in 96-well plates to parasite cultures incubated in the medium previously described, consisting of RPMI 1640 supplemented with 0.5% ALBUMAX® II, 25 mM Hepes, 25 mM NaHCO3 (pH 7.3), 0.36 mM hypoxanthine, and 100 μg/mL neomycin. The plates were incubated in a humidified atmosphere at 37 °C, 4% CO2, 3% O2, and 93% N2. After 48 h, 0.25 μCi of 3H-hypoxanthine was added to each well. Incubation was continued under identical conditions for a further 24 h. The plates were then harvested using a Betaplate™ cell harvester (Wallac, Zurich, Switzerland). The red blood cells were transferred onto a glass fiber filter and washed with distilled H2O. After drying, filters were inserted into a plastic foil with 10 mL of scintillation fluid and counted with a Betaplate™ liquid scintillation counter (Wallac, Zurich, Switzerland). Data were treated according to [44] (see below). The positive control was chloroquine.
as §1

[3] = cytotoxicity against L-6 rat skeletal myoblasts, resazurin
Procedure: Cytotoxicity against L-6 rat skeletal myoblasts: The L6 rat skeletal myoblast cell line used for cytotoxicity tests was obtained from the American Type Culture Collection (ATCC, Manassas, VA, USA) as ATCC-CRL-1458 [50]. The cells were cultivated in RPMI 1640 medium supplemented with 1% L-glutamine (200mM) and 10% fetal bovine serum. Cultures were maintained at 37 °C in an atmosphere of 5% CO2. Assays were performed in 96-well plates, each well containing RPMI 1640 medium supplemented with 1% L-glutamine (200 mM), 10% fetal bovine serum, and 2 × 10^3 L-6 cells/well. Plates were incubated at 37 °C under a 5% CO2 atmosphere for 24 h. Compounds were dissolved in DMSO (10 mg/mL). After 24 h, serial drug dilutions of eleven 3-fold dilution steps covering a range from 100 to 0.002 μg/mL were prepared, and the plates were incubated at 37 °C under 5% CO2 for 70 h. After 70 h incubation, 10 μL of resazurin solution (12.5 mg resazurin in 100 mL 1xPBS) was added per well, and plates were incubated for an additional 2 h. After that, the plates were read with a Spectramax Gemini EM microplate fluorometer (Molecular Devices, San Jose, CA, USA) using an excitation wavelength of 536 nm and an emission wavelength of 588 nm. Data were treated according to [44] (see below). Podophyllotoxin served as a positive control.
as §1

[4] = Trypanosoma brucei, pure compounds, tested as mono- or bis-trifluoroacetates where marked, read-out: IC50 Tbr (converted)
[5] = Trypanosoma brucei, values in brackets, calculated with the molecular masses of the corresponding salts, read-out: IC50 Tbr (converted)
[6] = Plasmodium falciparum, NF54, pure compounds, tested as mono- or bis-trifluoroacetates where marked, read-out: IC50 Pf (converted)
[7] = Plasmodium falciparum, NF54, values in brackets, calculated with the molecular masses of the corresponding salts, read-out: IC50 Pf (converted)
[8] = Plasmodium falciparum, NF54, read-out: IC50 Pf [µg/mL]
[9] = pure compounds, tested as mono- or bis-trifluoroacetates where marked

SMILES | SI(Tbr) ([1]; pure compounds) | IC50 [1, 4] [µg/mL] | IC50 [1, 5] [µM] | IC50 [2, 6] [µg/mL] | IC50 [2, 7] [µM] | SI (Pf) ([2]; pure compounds) | IC50 at 70 h [3] | other results
CN[C@@H]1CC[C@]2(C)[C@H]3CC[C@]4(C)[C@@H]([C@H](C)N(C)C)CC[C@H]4[C@@H]3CC[C@@]2(O)[C@@H]1OC(=O)c1ccccc1 [Compound 17, 5α-Hydroxy-3α,4α-diapachysanaximine A] | 3 | 3 ± 2 | 5 | 1.6 ± 0.4 | 2.3 | 7 | 12 µg/mL and 16 µM | 
C[C@@H]([C@H]1CC[C@H]2[C@@H]3CC[C@H]4C[C@@H](N(C)C)CC[C@]4(C)[C@H]3CC[C@]12C)N(C)C [Compound 12, N-methyl-desacyl-epipachysamine A] | 3 | 2.3 ± 0.2 | 3.9 | 2.5 ± 0.3 | 4.1 | 3 | 7 µg/mL and 11 µM | 
Nc1nc(N)nc(Nc2ccc([As]3SCC(CO)S3)cc2)n1 (stereo not drawn) [Melarsoprol, reference compound] |  |  |  |  |  |  |  | IC50 ([1]; Trypanosoma brucei, read-out: IC50 Tbr): 0.007 ± 0.002 µg/mL; IC50 ([1]; Trypanosoma brucei, read-out: IC50 Tbr [µg/mL]): 0.007 ± 0.002 µg/mL
C[C@@H]([C@H]1CC[C@H]2[C@@H]3CC[C@H]4[C@H](O)[C@@H](O)CC[C@]4(C)[C@H]3CC[C@]12C)N(C)C [Compound 11, Terminaline] | 5 | 5.9 ± 0.3 | 12.4 | 3 ± 1 | 7 | 8 | 28 µg/mL and 60 µM | 
C[C@@H]([C@H]1CC[C@H]2[C@@H]3CC[C@H]4[C@@H](O)[C@@H](NC(=O)c5ccccc5)[C@@H](O)C[C@]4(C)[C@H]3CC[C@]12C)N(C)C [Compound 18, 2β,3β,4β-Diapachysamine K] | 3 | 5.9 ± 0.4 | 9.9 | 47 ± 7 | 80 | 0.4 | 17 µg/mL and 28 µM | 
CC1=CC(=O)CC(C)(C)C1CCC(C)N(C)C (stereo not drawn) [Compound 1] | 8 | 6.2 ± 0.9 | 26.2 | 0.93 ± 0.07 | 3.91 | 51 | 47 µg/mL and 198 µM | 
CC(C)=CC(=O)N[C@@H]1[C@H](O)[C@@H]2CC[C@@H]3[C@H](CC[C@]4(C)[C@@H]([C@H](C)N(C)C)CC[C@@H]34)[C@@]2(C)C[C@@H]1O [Compound 16, 4β-Hydroxy-hookerianamide N] | 6 | 8.1 ± 0.6 | 14.1 | 6.1 ± 0.5 | 10.6 | 7 | 45 µg/mL and 79 µM | 
COc1cc([C@@H]2c3cc4c(cc3[C@H](O)[C@H]3COC(=O)[C@H]23)OCO4)cc(OC)c1OC [Podophyllotoxin, reference compound] |  |  |  |  |  |  |  | IC50 at 70 h ([3]; crude extracts and acid/base fractions, L6 cells, mean of two determinations ± deviation, read-out: IC50 Cytotox (converted)): 0.009 ± 0.001 µg/mL
CN[C@@H](C)[C@H]1CC[C@H]2[C@@H]3CC[C@H]4C[C@@H]([N+](C)(C)CCl)CC[C@]4(C)[C@H]3CC[C@]12C [Compound 6, N3-chloromethyl-desacyl-epipachysamine A] | 74 | 1.2 ± 0.4 | 1.9 | 0.25 ± 0.03 | 0.39 | 346 | 87 µg/mL and 136 µM | 
CN[C@@H]1CC[C@]2(C)[C@H]3CC[C@]4(C)[C@@H]([C@H](C)N(C)C)CC[C@H]4[C@@H]3CC[C@H]2[C@@H]1OC(=O)C=C(C)C [Compound 10, Pachysandrine D] | 9 | 0.69 ± 0.03 | 0.95 | 0.66 ± 0.13 | 1.01 | 10 | 6.5 µg/mL and 9.5 µM | IC50 ([1]; values in brackets, calculated with the molecular masses of the corresponding salts, read-out: IC50 Tbr (converted)): 1.01 µM; IC50 ([2]; values in brackets, calculated with the molecular masses of the corresponding salts, read-out: IC50 Pf (converted)): 0.97 µM
C[C@@H]([C@H]1CC[C@H]2[C@@H]3CC=C4C[C@@H](NC(=O)c5cccnc5)CC[C@]4(C)[C@H]3CC[C@]12C)N(C)C [Compound 5, Pactermine A] | 3 | 1.93 ± 0.06 | 2.85 | 0.91 ± 0.02 | 1.34 | 6 | 5.8 µg/mL and 8.6 µM | 
CCN(CC)CCCC(C)Nc1ccnc2cc(Cl)ccc12 (stereo not drawn) [Chloroquine, reference compound] |  |  |  |  |  |  |  | IC50 ([2]; Plasmodium falciparum, NF54, read-out: IC50 Pf): 0.002 µg/mL; IC50 [2, 8]: 0.002 µg/mL
O=C(O)C(F)(F)F [Trifluoroacetate, reference compound] |  |  |  |  |  |  |  | IC50 Tbr [1, 9]: >100 µg/mL; IC50 Pf [2, 9]: >100 µg/mL
CC(=O)N(C)[C@@H](C)[C@H]1CC[C@H]2[C@@H]3CC[C@H]4C[C@@H](N(C)C)CC[C@]4(C)[C@H]3CC[C@]12C [Compound 14, Epipachysamine A] | 5 | 2.14 ± 0.05 | 4.14 | 18 ± 1 | 36 | 0.6 | 12 µg/mL and 23 µM | 
CC(=O)[C@H]1CC[C@H]2[C@@H]3CCC4C[C@@H](N(C)C)CC[C@]4(C)[C@H]3CC[C@]12C (stereo partly drawn) [Compound 9, 3β-Dimethylamino-pregnane-20-one] | 3 | 2.21 ± 0.06 | 4.8 |  |  | 0.8 |  | IC50 ([2]; Plasmodium falciparum, NF54, read-out: IC50 Pf (µM)): 18 µM; IC50 [2, 8]: 8 ± 2 µg/mL; IC50 at 70 h ([3]; L6 cells, values in brackets, calculated with the molecular masses of the corresponding salts, read-out: IC50 Cytotox (converted)): 14 µM; IC50 at 70 h ([3]; pure compounds, L6 cells, tested as mono- or bis-trifluoroacetates where marked, read-out: IC50 Cytotox (converted)): 6 ± 2 µg/mL
